Results published in paper PMC4050187 (FEBS Open Bio, 2014).

Biological target: T1, Cj0511His (Campylobacter jejuni, UniProt Q0PB04)
T1 sequence (Q0PB04 36-444): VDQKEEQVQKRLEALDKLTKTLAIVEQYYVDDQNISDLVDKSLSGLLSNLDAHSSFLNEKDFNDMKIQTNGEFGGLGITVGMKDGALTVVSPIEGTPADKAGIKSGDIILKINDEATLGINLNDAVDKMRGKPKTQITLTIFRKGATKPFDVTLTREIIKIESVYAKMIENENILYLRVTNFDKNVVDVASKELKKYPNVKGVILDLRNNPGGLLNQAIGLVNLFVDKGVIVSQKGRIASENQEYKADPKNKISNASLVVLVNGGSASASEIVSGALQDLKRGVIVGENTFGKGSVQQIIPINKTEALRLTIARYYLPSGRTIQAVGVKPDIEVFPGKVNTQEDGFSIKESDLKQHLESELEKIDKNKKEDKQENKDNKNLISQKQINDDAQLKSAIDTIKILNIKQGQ
Experiment: colorimetric protease screening kit, absorbance at […] nm
Type: biochemical
Settings: 1 mM inhibitor, 37 °C, 3 h, 0.25 μg protein in 50 μl

SMILES: NCCc1ccc(S(=O)(=O)F)cc1 [AEBSF]
- reduction in activity at 1 mM: reduction in activity in the presence of antipain, aprotin, AEBSF and PMSF inhibitors
